What was measured:
Test in all cases: Fluorescence after 24 hours, serial dilutions in Trypticase Soy broth
Format in all cases: cell-based
[1] = tested on: Burkholderia cepacia (ATCC 25416)
Protocol: (§1) This experiment was performed to test 7-nitrocoumarin-3-carboxylic acid on sixteen (16) different types of microorganism, including one yeast species.
(§2) A mass of 10 mg of the indicator was dissolved in 4 ml of hot, distilled water and this solution was then added to 96 ml of Trypticase Soy broth. The resultant mixture was sterile-filtered.
(§3) All the microorganisms were grown for 24 hours in Trypticase Soy broth at 35° C. Each culture was then diluted 1,000-fold in Trypticase Soy broth and then serial 10-fold dilutions were made in more Trypticase Soy broth until the test aliquot contained no more microbial cells.
(§4) The resultant dilutions ranged from 10^−3 to 10^−13.
(§5) Fifty microliters of each dilution plus 50 μl of Trypticase Soy broth were added to wells of a microtiter plate with or without 7-nitrocoumarin-3-carboxylic acid.
(§6) The plates were read (T zero) and then incubated at 35° C. before being read again after 24 hours. Two different readings were made at each time point:
(§7) of the fluorescence (excitation at 365 nm and emission at 440 nm), using a Biolite F1 2001 fluorometer (Labtech International Limited), for wells containing 7-nitrocoumarin-3-carboxylic acid.

[2] = tested on: Streptococcus mitis (NCTC 12261)
Protocol: as §1, §2, §3, §4, §5, §6, §7

[3] = tested on: Moraxella osloensis (ATCC 19976)
Protocol: as §1, §2, §3, §4, §5, §6, §7

[4] = tested on: Shigella sonnei (NCTC 8586)
Protocol: as §1, §2, §3, §4, §5, §6, §7

[5] = tested on: Staphylococcus aureus (NCTC 6571)
Protocol: as §1, §2, §3, §4, §5, §6, §7

[6] = tested on: Pseudomonas putida (ATCC 12633)
Protocol: as §1, §2, §3, §4, §5, §6, §7

[7] = tested on: Serratia marcescens (NCTC 10211)
Protocol: as §1, §2, §3, §4, §5, §6, §7

[8] = tested on: Acinetobacter calcoaceticus (ATCC 7844)
Protocol: as §1, §2, §3, §4, §5, §6, §7

[9] = tested on: Acinetobacter baumanii (ATCC 19606)
Protocol: as §1, §2, §3, §4, §5, §6, §7

[10] = tested on: Pseudomonas fluorescens (ATCC 13525)
Protocol: as §1, §2, §3, §4, §5, §6, §7

[11] = tested on: Acinetobacter haemolyticus (ATCC 17906)
Protocol: as §1, §2, §3, §4, §5, §6, §7

Question: What does the source list for `O=C(O)c1cc2ccc([N+](=O)[O-])cc2oc1=O` [7-nitrocoumarin-3-carboxylic acid]?
Answer: Fluorescence reading ([1]; dilution 10^−3): 16978; Fluorescence reading ([1]; dilution 10^−4): 16719; Fluorescence reading ([1]; dilution 10^−5): 16808; Fluorescence reading ([1]; dilution 10^−6): 15800; Fluorescence reading ([1]; dilution 10^−7): 11973; Fluorescence reading ([1]; dilution 10^−8): 1969; Fluorescence reading ([1]; dilution 10^−9): 1996; Fluorescence reading ([1]; dilution 10^−10): 1950; Fluorescence reading ([1]; dilution 10^−11): 1925; Fluorescence reading ([1]; dilution 10^−12): 1965; Fluorescence reading ([1]; dilution 10^−13): 1914; Fluorescence reading ([2]; dilution 10^−3): 20988; Fluorescence reading ([2]; dilution 10^−4): 21541; Fluorescence reading ([2]; dilution 10^−5): 19899; Fluorescence reading ([2]; dilution 10^−6): 19619; Fluorescence reading ([2]; dilution 10^−7): 17228; Fluorescence reading ([2]; dilution 10^−8): 1682; Fluorescence reading ([2]; dilution 10^−9): 1676; Fluorescence reading ([2]; dilution 10^−10): 1691; Fluorescence reading ([2]; dilution 10^−11): 1636; Fluorescence reading ([2]; dilution 10^−12): 1644; Fluorescence reading ([2]; dilution 10^−13): 1669; Fluorescence reading ([3]; dilution 10^−3): 11426; Fluorescence reading ([3]; dilution 10^−4): 9949; Fluorescence reading ([3]; dilution 10^−5): 7700; Fluorescence reading ([3]; dilution 10^−6): 5875; Fluorescence reading ([3]; dilution 10^−7): 1925; Fluorescence reading ([3]; dilution 10^−8): 1941; Fluorescence reading ([3]; dilution 10^−9): 1977; Fluorescence reading ([3]; dilution 10^−10): 2039; Fluorescence reading ([3]; dilution 10^−11): 1938; Fluorescence reading ([3]; dilution 10^−12): 1907; Fluorescence reading ([3]; dilution 10^−13): 1945; Fluorescence reading ([4]; dilution 10^−3): 51755; Fluorescence reading ([4]; dilution 10^−4): 50254; Fluorescence reading ([4]; dilution 10^−5): 50166; Fluorescence reading ([4]; dilution 10^−6): 50278; Fluorescence reading ([4]; dilution 10^−7): 49882; Fluorescence reading ([4]; dilution 10^−8): 47370; Fluorescence reading ([4]; dilution 10^−9): 1816; Fluorescence reading ([4]; dilution 10^−10): 1990; Fluorescence reading ([4]; dilution 10^−11): 1960; Fluorescence reading ([4]; dilution 10^−12): 1956; Fluorescence reading ([4]; dilution 10^−13): 1911; Fluorescence reading ([5]; dilution 10^−3): 46607; Fluorescence reading ([5]; dilution 10^−4): 45207; Fluorescence reading ([5]; dilution 10^−5): 44544; Fluorescence reading ([5]; dilution 10^−6): 43559; Fluorescence reading ([5]; dilution 10^−7): 41437; Fluorescence reading ([5]; dilution 10^−8): 1678; Fluorescence reading ([5]; dilution 10^−9): 1666; Fluorescence reading ([5]; dilution 10^−10): 1666; Fluorescence reading ([5]; dilution 10^−11): 1620; Fluorescence reading ([5]; dilution 10^−12): 1706; Fluorescence reading ([5]; dilution 10^−13): 1669; Fluorescence reading ([6]; dilution 10^−3): 12589; Fluorescence reading ([6]; dilution 10^−4): 9810; Fluorescence reading ([6]; dilution 10^−5): 7670; Fluorescence reading ([6]; dilution 10^−6): 6806; Fluorescence reading ([6]; dilution 10^−7): 5714; Fluorescence reading ([6]; dilution 10^−8): 1715; Fluorescence reading ([6]; dilution 10^−9): 1664; Fluorescence reading ([6]; dilution 10^−10): 1660; Fluorescence reading ([6]; dilution 10^−11): 1651; Fluorescence reading ([6]; dilution 10^−12): 1660; Fluorescence reading ([6]; dilution 10^−13): 1657; Fluorescence reading ([7]; dilution 10^−3): 47178; Fluorescence reading ([7]; dilution 10^−4): 49470; Fluorescence reading ([7]; dilution 10^−5): 45804; Fluorescence reading ([7]; dilution 10^−6): 45454; Fluorescence reading ([7]; dilution 10^−7): 45637; Fluorescence reading ([7]; dilution 10^−8): 43088; Fluorescence reading ([7]; dilution 10^−9): 48320; Fluorescence reading ([7]; dilution 10^−10): 1678; Fluorescence reading ([7]; dilution 10^−11): 1641; Fluorescence reading ([7]; dilution 10^−12): 1636; Fluorescence reading ([7]; dilution 10^−13): 1621; Fluorescence reading ([8]; dilution 10^−3): 29657; Fluorescence reading ([8]; dilution 10^−4): 18288; Fluorescence reading ([8]; dilution 10^−5): 12311; Fluorescence reading ([8]; dilution 10^−6): 12223; Fluorescence reading ([8]; dilution 10^−7): 11635; Fluorescence reading ([8]; dilution 10^−8): 14858; Fluorescence reading ([8]; dilution 10^−9): 13353; Fluorescence reading ([8]; dilution 10^−10): 10862; Fluorescence reading ([8]; dilution 10^−11): 1712; Fluorescence reading ([8]; dilution 10^−12): 1654; Fluorescence reading ([8]; dilution 10^−13): 1699; Fluorescence reading ([9]; dilution 10^−3): 27016; Fluorescence reading ([9]; dilution 10^−4): 11695; Fluorescence reading ([9]; dilution 10^−5): 12525; Fluorescence reading ([9]; dilution 10^−6): 8912; Fluorescence reading ([9]; dilution 10^−7): 6953; Fluorescence reading ([9]; dilution 10^−8): 1651; Fluorescence reading ([9]; dilution 10^−9): 1705; Fluorescence reading ([9]; dilution 10^−10): 1718; Fluorescence reading ([9]; dilution 10^−11): 1678; Fluorescence reading ([9]; dilution 10^−12): 1687; Fluorescence reading ([9]; dilution 10^−13): 1660; Fluorescence reading ([10]; dilution 10^−3): 8985; Fluorescence reading ([10]; dilution 10^−4): 1774; Fluorescence reading ([10]; dilution 10^−5): 1657; Fluorescence reading ([10]; dilution 10^−6): 1625; Fluorescence reading ([10]; dilution 10^−7): 1716; Fluorescence reading ([10]; dilution 10^−8): 1690; Fluorescence reading ([10]; dilution 10^−9): 1736; Fluorescence reading ([10]; dilution 10^−10): 1666; Fluorescence reading ([10]; dilution 10^−11): 1691; Fluorescence reading ([10]; dilution 10^−12): 1666; Fluorescence reading ([10]; dilution 10^−13): 1624; Fluorescence reading ([11]; dilution 10^−3): 19231; Fluorescence reading ([11]; dilution 10^−4): 17403; Fluorescence reading ([11]; dilution 10^−5): 12614; Fluorescence reading ([11]; dilution 10^−6): 9727; Fluorescence reading ([11]; dilution 10^−7): 4236; Fluorescence reading ([11]; dilution 10^−8): 1981; Fluorescence reading ([11]; dilution 10^−9): 1938; Fluorescence reading ([11]; dilution 10^−10): 2005; Fluorescence reading ([11]; dilution 10^−11): 1947; Fluorescence reading ([11]; dilution 10^−12): 1904; Fluorescence reading ([11]; dilution 10^−13): 1938

From patent US20020031795A1, “Nitrocoumarins for detecting all micro-organisms” (priority 1998, published 2002)
